In assay [1] the test system is Cyclophilin B (PPIB) gene expression in A549 cells. Briefly: In vitro assay for PPIB gene expression knockdown in A549 cells. The format is cell-based, human. The conditions noted are these: for % KD (vs QNeg) A549/PPIB: A549 cells, PPIB mRNA by RT-PCR 24 hours after transfection; for knockdown in the A549/PPIB assay: as compared to both Qneg and vehicle (data for vehicle not shown). As to the method:
Cyclophilin B (PPIB) gene expression knockdown was measured in A549 human alveolar basal epithelial cells. For PPIB gene knockdown measurements, A549 cells were transfected with an interfering RNA formulation, total RNA prepared 24 hours after transfection, and PPIB mRNA assayed by RT-PCR. QRT-PCR of 36B4 (acidic ribosomal phosphoprotein PO) mRNA expression was performed for normalization.
Confluency was about 50% at the time of transfection.
For PPIB gene knockdown cells were lysed and RNA prepared (Invisorb RNA Cell HTS 96-Kit/C, Invitek, Berlin, or RNeasy 96 Kit, Qiagen). Quantitative RT-PCR was performed using One-Step qRT-PCR kit (Invitrogen) on a DNA Engine Opticon2 thermal cycler (BioRad).

The test system of assay [2] is LacZ gene (bacterial galactosidase) in 9L/LacZ cells. As to the kind of experiment: In vitro assay for LacZ gene expression knockdown in 9L cells.
Protocol: 9L/LacZ is a rat gliosarcoma cell line stably expressing the LacZ gene that encodes bacterial galactosidase. LacZ gene knockdown measurements can be used as a primary activity-based in vitro assay for interfering RNA delivery formulations.
For LacZ gene knockdown measurements, 9L/LacZ cells were transfected with an RNAi formulation, and a β-galactosidase assay was performed on cells harvested at day 3 post transfection. An additional assay was performed to quantify protein concentration.
9L/LacZ cells were plated at 8000 cells/well (96-well) and incubated overnight in medium. Confluency was about 15-20% at the time of transfection. Transfection complex was prepared by adding an interfering RNA to OptiMEM™ medium and vortexing, separately adding a delivery formulation to OptiMEM™ medium and vortexing, and finally mixing the interfering RNA in medium with the delivery formulation in medium to make the transfection complex. The medium for incubated cells was replaced with fresh no-serum media (OptiMEM™ without serum) and transfection complex was added to each well. Cells were incubated 5 hrs, then after the addition of 100 microliters complete medium (DMEM plus 10% fetal bovine serum) were incubated overnight at 37° C. and 5% CO2. The next day, 24 hours after transfection, the medium was changed to fresh complete medium and the cells were incubated another 48 hrs at 37° C. and 5% CO2.
For LacZ gene knockdown, the harvested 9L/LacZ cells were washed in PBS, lysed in M-PER™ Reagent (Pierce), and incubated at room temperature for 15 minutes. Lysate was taken from each well for protein assay with a Micro BCA kit (Pierce, Thermo Fisher Scientific) and β-gal assay with All-in-One™ β-Galactosidase Assay Reagent (Pierce).
Where [3] appears, read: N:P ratio 2, β-galactosidase assay day 3 post transfection.
[4] abbreviates: N:P ratio 4, β-galactosidase assay day 3 post transfection.

Primed or numbered codes have the meaning given here. No end group written: not given here. C20 = lipophilic group with a 20-carbon chain; PEG27′ = polyethylene glycol, 27 units; cysteamide = C-terminal cysteamide; C16 = N-terminal C16 lipid; C18 = N-terminal C18 lipid; C18″ = C18 lipid

Data on 9 substances can be found in US9821067B2, “Lipopeptides for delivery of nucleic acids” (Marina Biotech, Inc., priority 2007, dated 2017).

“(C16)-HHHHHKHHHKKKHKHKKK-Cysteamide (C16-HHHHHKHHHKKKHKHKKK-cysteamide)”: the entries for the “% KD (vs QNeg) A549/PPIB” value in assay [1] (N:P ratio 2) and in assay [1] (N:P ratio 4) were 14.7% and −19.8%, respectively. Further, the “% KD (vs QNeg) L/9lacZ” value in assay [2] (setting [3]) was 12.0%; in assay [2] (setting [4]) it was 12.4%.

On to “(C18)-HHHHHKHHHKKKHKHKKK-cysteamide (C18-HHHHHKHHHKKKHKHKKK-cysteamide)”, for which the “% KD (vs QNeg) A549/PPIB” value in assay [1] (N:P ratio 2) was determined as 25.5%; in assay [1] (N:P ratio 4), 21.6%. In addition, in assay [1], the “knockdown in the A549/PPIB assay” value is given as “significant knockdown”. The “% KD (vs QNeg) L/9lacZ” value in assay [2] (setting [3]) is given as −11.3%; in assay [2] (setting [4]), −19.4%.

In the case of “(C18)-HHHHRRRRRRRR-Cysteamide (C18-HHHHRRRRRRRR-cysteamide)”, the “% KD (vs QNeg) A549/PPIB” value in assay [1] (N:P ratio 2) came to 15.3%. Further, the “% KD (vs QNeg) L/9lacZ” value in assay [2] (setting [3]) is on record as −0.8%.

Take “(C18)-PEG27-HHHHHHHHRRRRRRRR-amide ({C18″-PEG27′}-HHHHHHHHRRRRRRRR-NH2)”: the “% KD (vs QNeg) A549/PPIB” value is 30.6% in assay [1] (N:P ratio 2) and 7.4% in assay [1] (N:P ratio 4). Moreover, the “% KD (vs QNeg) L/9lacZ” value was 9.2% in assay [2] (setting [3]) and −16.1% in assay [2] (setting [4]).

In the case of “(C20)-(H)8(R)8(H)8K-NH-(C20) (C20-HHHHHHHHRRRRRRRRHHHHHHHHK(C20))”, the figures for the “% KD (vs QNeg) A549/PPIB” value in assay [1] (N:P ratio 2) and in assay [1] (N:P ratio 4) were 29.7% and 65.8%, respectively. Also, the “knockdown in the A549/PPIB assay” value in assay [1] is “significant knockdown”. The “% KD (vs QNeg) L/9lacZ” value in assay [2] (setting [3]) is 60.1%; in assay [2] (setting [4]) it was 57.5%.

“Ac-GALFLAFLAAALSLMGLWSQPKKKRKV-Cysteamide (Ac-GALFLAFLAAALSLMGLWSQPKKKRKV-cysteamide)”: the “% KD (vs QNeg) A549/PPIB” value in assay [1] (N:P ratio 2) worked out at 20.5%. In addition, the “% KD (vs QNeg) L/9lacZ” value in assay [2] (setting [3]) is recorded as 29.1%.

For “Ac-GALFLAFLAAALSLMGLWSQPKSKRKV-Cysteamide (Ac-GALFLAFLAAALSLMGLWSQPKSKRKV-cysteamide)”, the results for the “% KD (vs QNeg) A549/PPIB” value in assay [1] (N:P ratio 2) and in assay [1] (N:P ratio 4) were 15.5% and 16.0%, respectively. Further, the “% KD (vs QNeg) L/9lacZ” value in assay [2] (setting [3]) was 29.5%; in assay [2] (setting [4]), −9.3%.

On to “Ac-GALFLGFLGAAGSTMGAWSQPKSKRKV-amide (Ac-GALFLGFLGAAGSTMGAWSQPKSKRKV-NH2)”, for which the entries for the “% KD (vs QNeg) A549/PPIB” value in assay [1] (N:P ratio 2) and in assay [1] (N:P ratio 4) were −8.1% and −3.7%, respectively. The “% KD (vs QNeg) L/9lacZ” value is given as −0.4% in assay [2] (setting [3]) and −1.6% in assay [2] (setting [4]).

Consider “Ac-LIRLWSHLIHIWFQNRRLKWKKK-amide (Ac-LIRLWSHLIHIWFQNRRLKWKKK-NH2)”, for which the “% KD (vs QNeg) A549/PPIB” value in assay [1] (N:P ratio 2) was 8.7%; in assay [1] (N:P ratio 4), −28.8%. The results for the “% KD (vs QNeg) L/9lacZ” value in assay [2] (setting [3]) and in assay [2] (setting [4]) were −19.9% and −4.5%, respectively.
